Measured values published in PMC11277489, “Novel Piperazine Derivatives of Vindoline as Anticancer Agents” (International Journal of Molecular Sciences, 2024).

Experiments:
[1] = test system: SW-620; assay: NCI60 one-dose screen (10 μM), Colon Cancer; format: cell-based; settings: Homo sapiens; 10 μM; SW-620, Colon Cancer; read-out: Growth percent rate
[2] = test system: NCI-H522; assay: NCI60 one-dose screen (10 μM), Non-small Cell Lung Cancer; format: cell-based; settings: Homo sapiens; 10 μM; NCI-H522, Non-small Cell Lung Cancer; read-out: Growth percent rate
[3] = test system: ACHN; assay: NCI60 one-dose screen (10 μM), Renal Cancer; format: cell-based; settings: Homo sapiens, 10 μM, Renal Cancer, read-out: Growth percent rate
[4] = test system: HOP-62; assay: NCI60 one-dose screen (10 μM), Non-small Cell Lung Cancer; format: cell-based; settings: Homo sapiens; 10 μM; HOP-62, Non-small Cell Lung Cancer; read-out: Growth percent rate
[5] = test system: UACC-257; assay: NCI60 one-dose screen (10 μM), Melanoma; format: cell-based; settings: Homo sapiens; 10 μM; UACC-257, Melanoma; read-out: Growth percent rate
[6] = test system: MDA-MB-435; assay: NCI60 one-dose screen (10 μM), Melanoma; format: cell-based; settings: Homo sapiens; 10 μM; MDA-MB-435, Melanoma; read-out: Growth percent rate
[7] = test system: RXF 393; assay: NCI60 one-dose screen (10 μM), Renal Cancer; format: cell-based, human; settings: Homo sapiens; 10 μM; RXF 393, Renal Cancer; read-out: Growth percent rate
[8] = test system: MCF7; assay: NCI60 one-dose screen (10 μM), Breast Cancer; format: cell-based; settings: Homo sapiens; 10 μM; MCF7, Breast Cancer; read-out: Growth percent rate
[9] = test system: HT29; assay: NCI60 one-dose screen (10 μM), Colon Cancer; format: cell-based; settings: Homo sapiens, HT-29; 10 μM; HT29, Colon Cancer; read-out: Growth percent rate
[10] = test system: OVCAR-3; assay: NCI60 one-dose screen (10 μM), Ovarian Cancer; format: cell-based; settings: Homo sapiens; 10 μM; OVCAR-3, Ovarian Cancer; read-out: Growth percent rate
[11] = test system: A549/ATCC; assay: NCI60 one-dose screen (10 μM), Non-small Cell Lung Cancer; format: cell-based; settings: Homo sapiens; 10 μM; A549/ATCC, Non-small Cell Lung Cancer; read-out: Growth percent rate
[12] = test system: CAKI-1; assay: NCI60 one-dose screen (10 μM), Renal Cancer; format: cell-based; settings: Homo sapiens; 10 μM; CAKI-1, Renal Cancer; read-out: Growth percent rate
[13] = test system: SN12C; assay: NCI60 one-dose screen (10 μM), Renal Cancer; format: cell-based; settings: Homo sapiens, 10 μM, Renal Cancer, read-out: Growth percent rate
[14] = test system: NCI-H23; assay: NCI60 one-dose screen (10 μM), Non-small Cell Lung Cancer; format: cell-based; settings: Homo sapiens; 10 μM; NCI-H23, Non-small Cell Lung Cancer; read-out: Growth percent rate
[15] = test system: HCC-2998; assay: NCI60 one-dose screen (10 μM), Colon Cancer; format: cell-based; settings: Homo sapiens; 10 μM; HCC-2998, Colon Cancer; read-out: Growth percent rate
[16] = test system: NCI-H322M; assay: NCI60 one-dose screen (10 μM), Non-small Cell Lung Cancer; format: cell-based; settings: Homo sapiens, 10 μM, Non-small Cell Lung Cancer, read-out: Growth percent rate
[17] = test system: HCT-15; assay: NCI60 one-dose screen (10 μM), Colon Cancer; format: cell-based; settings: Homo sapiens; 10 μM; HCT-15, Colon Cancer; read-out: Growth percent rate
[18] = test system: EKVX; assay: NCI60 one-dose screen (10 μM), Non-small Cell Lung Cancer; format: cell-based; settings: Homo sapiens, 10 μM, Non-small Cell Lung Cancer, read-out: Growth percent rate
[19] = test system: 786–0; assay: NCI60 one-dose screen (10 μM), Renal Cancer; format: cell-based; settings: Homo sapiens; 10 μM; 786-0, Renal Cancer; read-out: Growth percent rate
[20] = test system: SNB-19; assay: NCI60 one-dose screen (10 μM), CNS Cancer; format: cell-based; settings: Homo sapiens; 10 μM; SNB-19, CNS Cancer; read-out: Growth percent rate
[21] = test system: SK-MEL-5; assay: NCI60 one-dose screen (10 μM), Melanoma; format: cell-based, human; settings: Homo sapiens; 10 μM; SK-MEL-5, Melanoma; read-out: Growth percent rate
[22] = test system: HCT-116; assay: NCI60 one-dose screen (10 μM), Colon Cancer; format: cell-based; settings: Homo sapiens; 10 μM; HCT-116, Colon Cancer; read-out: Growth percent rate
[23] = test system: MOLT-4; assay: NCI60 one-dose screen (10 μM), Leukemia; format: cell-based, human; settings: Homo sapiens; 10 μM; MOLT-4, Leukemia; read-out: Growth percent rate
[24] = test system: CCRF-CEM; assay: NCI60 one-dose screen (10 μM), Leukemia; format: cell-based; settings: Homo sapiens, 10 μM, Leukemia, read-out: Growth percent rate
[25] = test system: HL-60(TB); assay: NCI60 one-dose screen (10 μM), Leukemia; format: cell-based; settings: Homo sapiens; 10 μM; HL-60(TB), Leukemia; read-out: Growth percent rate
[26] = test system: TK-10; assay: NCI60 one-dose screen (10 μM), Renal Cancer; format: cell-based; settings: Homo sapiens; 10 μM; TK-10, Renal Cancer; read-out: Growth percent rate
[27] = test system: OVCAR-8; assay: NCI60 one-dose screen (10 μM), Ovarian Cancer; format: cell-based; settings: Homo sapiens; 10 μM; OVCAR-8, Ovarian Cancer; read-out: Growth percent rate
[28] = test system: OVCAR-4; assay: NCI60 one-dose screen (10 μM), Ovarian Cancer; format: cell-based; settings: Homo sapiens; 10 μM; OVCAR-4, Ovarian Cancer; read-out: Growth percent rate
[29] = test system: MALME-3M; assay: NCI60 one-dose screen (10 μM), Melanoma; format: cell-based; settings: Homo sapiens; 10 μM; MALME-3M, Melanoma; read-out: Growth percent rate
[30] = test system: SF-295; assay: NCI60 one-dose screen (10 μM), CNS Cancer; format: cell-based; settings: Homo sapiens; 10 μM; SF-295, CNS Cancer; read-out: Growth percent rate
[31] = test system: IGROV1; assay: NCI60 one-dose screen (10 μM), Ovarian Cancer; format: cell-based; settings: Homo sapiens, IGROV-1; 10 μM; IGROV1, Ovarian Cancer; read-out: Growth percent rate
[32] = test system: COLO 205; assay: NCI60 one-dose screen (10 μM), Colon Cancer; format: cell-based, human; settings: Homo sapiens; 10 μM; COLO 205, Colon Cancer; read-out: Growth percent rate
[33] = test system: M14; assay: NCI60 one-dose screen (10 μM), Melanoma; format: cell-based; settings: Homo sapiens; 10 μM; M14, Melanoma; read-out: Growth percent rate
[34] = test system: SF-268; assay: NCI60 one-dose screen (10 μM), CNS Cancer; format: cell-based; settings: Homo sapiens; 10 μM; SF-268, CNS Cancer; read-out: Growth percent rate
[35] = test system: HS 578T; assay: NCI60 one-dose screen (10 μM), Breast Cancer; format: cell-based; settings: Homo sapiens; 10 μM; HS 578T, Breast Cancer; read-out: Growth percent rate
[36] = test system: K-562; assay: NCI60 one-dose screen (10 μM), Leukemia; format: cell-based; settings: Homo sapiens, K562; 10 μM; K-562, Leukemia; read-out: Growth percent rate
[37] = test system: LOX IMVI; assay: NCI60 one-dose screen (10 μM), Melanoma; format: cell-based, human; settings: Homo sapiens; 10 μM; LOX IMVI, Melanoma; read-out: Growth percent rate
[38] = test system: RPMI-8226; assay: NCI60 one-dose screen (10 μM), Leukemia; format: cell-based; settings: Homo sapiens; 10 μM; RPMI-8226, Leukemia; read-out: Growth percent rate
[39] = test system: SF-539; assay: NCI60 one-dose screen (10 μM), CNS Cancer; format: cell-based, human; settings: Homo sapiens; 10 μM; SF-539, CNS Cancer; read-out: Growth percent rate
[40] = test system: KM12; assay: NCI60 one-dose screen (10 μM), Colon Cancer; format: cell-based, human; settings: Homo sapiens; 10 μM; KM12, Colon Cancer; read-out: Growth percent rate
[41] = test system: SK-MEL-2; assay: NCI60 one-dose screen (10 μM), Melanoma; format: cell-based; settings: Homo sapiens; 10 μM; SK-MEL-2, Melanoma; read-out: Growth percent rate
[42] = test system: SK-MEL-28; assay: NCI60 one-dose screen (10 μM), Melanoma; format: cell-based; settings: Homo sapiens; 10 μM; SK-MEL-28, Melanoma; read-out: Growth percent rate

## CCC12C=CCN3CCC4(c5cc(NC(=O)CN6CCN(C(=O)c7ccco7)CC6)c(OC)cc5N(C)C4C(O)(C(=O)OC)C1OC(C)=O)C32 (stereo not drawn) [Compound 21]
[1]
  activity at 10 µM: 113%
[2]
  activity at 10 µM: 98.2%
[3]
  activity at 10 µM: 109%
[4]
  activity at 10 µM: 100%
[5]
  activity at 10 µM: 106%
[6]
  activity at 10 µM: 104%
[7]
  activity at 10 µM: 133%
[8]
  activity at 10 µM: 98.3%
[9]
  activity at 10 µM: 109%
[10]
  activity at 10 µM: 118%
[11]
  activity at 10 µM: 101%
[12]
  activity at 10 µM: 97.5%
[13]
  activity at 10 µM: 107%
[14]
  activity at 10 µM: 106%
[15]
  activity at 10 µM: 126%
[16]
  activity at 10 µM: 110%
[17]
  activity at 10 µM: 107%
[18]
  activity at 10 µM: 99.2%
[19]
  activity at 10 µM: 104%
[20]
  activity at 10 µM: 96.2%
[21]
  activity at 10 µM: 105%
[22]
  activity at 10 µM: 108%
[23]
  activity at 10 µM: 101%
[24]
  activity at 10 µM: 103%
[25]
  activity at 10 µM: 114%
[26]
  activity at 10 µM: 109%
[27]
  activity at 10 µM: 101%
[28]
  activity at 10 µM: 108%
[29]
  activity at 10 µM: 104%
[30]
  activity at 10 µM: 110%
[31]
  activity at 10 µM: 127%
[32]
  activity at 10 µM: 120%
[33]
  activity at 10 µM: 110%
[34]
  activity at 10 µM: 106%
[35]
  activity at 10 µM: 121%
[36]
  activity at 10 µM: 108%
[37]
  activity at 10 µM: 98.5%
[38]
  activity at 10 µM: 103%
[39]
  activity at 10 µM: 114%
[40]
  activity at 10 µM: 99.8%
[41]
  activity at 10 µM: 111%
[42]
  activity at 10 µM: 126%
